How the values were obtained:
Assay type in all cases: cell-based
[1] = tested on: Yersinia enterocolitica; experiment: Paper disk method microbicidal test; details: 2.5 mg/mL solution on 8.12 mm paper disk, 0 mg/mL control: 15.65 (flavone, 40% DMSO), — (catechin)
Protocol: As microbicidal test method for 5,7,4′-trihydroxy-3′,5′-dimethoxyflavone, the paper disk method was employed, by which method the microbicidal activity can be judged even in cases where a solvent has some influences.
In paper disk method, sample solutions having various sample concentration are prepared, and the sample solution was absorbed in a special paper disk, followed by drying the paper disk. Onto the plate which is made by mixing a prepared bacterial suspension with agar medium, the paper disks are placed. If the sample has a microbicidal activity, the inhibition ring which indicates the inhibition of bacterial growth is formed such that the center of the ring is coincident with the paper disk. The degree of a microbicidal activity is judged based on the size of the inhibition ring.
First, 4 mg of 5,7,4′-trihydroxy-3′,5′-dimethoxyflavone sample was dissolved in 200 μL to prepare 20 mg/mL sample solution. To 100 μL of this 20 mg/mL sample solution, 100 μL of sterilized water was added to prepare 200 μL of 10 mg/mL sample solution. To the solution, 60 μL DMSO and 140 μL of sterilized water were added to prepare 400 μL of 5.0 mg/mL sample solution. DMSO was used in the concentration of 40%, because the sample precipitated from 30% DMSO. To 350 μL of 5.0 mg/mL sample solution, 140 μL DMSO and 210 μL of sterilized water were added to prepare 700 μL of 2.5 mg/mL sample solution. In the same manner, 1.25 mg/mL and 0.625 mg/mL sample solutions were prepared. As a control, a solution containing 40% DMSO and 60% sterilized water was prepared. […] In a paper disk (8.12 mm diameter), 70 μL of these solutions each was absorbed, and the paper disks were dried for a day.
As test bacteria, Staphylococcus aureus, Salmonella sp., Yersinia enterocolitica, Pseudomonas aeruginosa, and Candida sp. were used. These bacteria were mixed with 2 mL of sterilized water to prepare bacterial suspensions having turbidity 1 (10^8/mL). The plate agar was made by mixing 0.2 mL of the bacterial suspension with 19.8 mL of BHI medium. The dried paper disk was placed onto the plate agar, and the plate was incubated in an incubator at 37° C., followed by assessing the activity. In the Table, (-) represents that no microbicidal activity was observed.

[2] = tested on: Staphylococcus aureus; experiment: Agar dilution method microbicidal test; on Growth on agar plate: key: +: grew; −: did not grow
Protocol: (§1) As microbicidal test method for trans-p-coumaric acid, 3-hydroxypyridine, p-hydroxybenzaldehyde and vanillin, the agar dilution method was employed.
(§2) In agar dilution method, a solution in which a sample is dissolved is serially diluted several times, and each of the diluted sample solutions is mixed with agar medium to prepare plate agars having various sample concentration. Then bacteria is inoculated onto the plate agars. In cases where the sample has a microbicidal activity, the growth of the bacteria on the plates can be inhibited. The lowest concentration which can inhibit the growth of the bacteria is referred to as Minimum Inhibitory Concentration (MIC), thereby judging the degree of a microbicidal activity of the sample.
(§3) First, 400 mg of sample was dissolved in 1 mL of DMSO to prepare 400 mg/mL sample solution. Then 0.5 mL of this 400 mg/mL sample solution was diluted 2-fold to prepare 200 mg/mL sample solution. In the same manner, sample solutions of 100 mg/mL, 50.0 mg/mL, and 25.0 mg/mL were prepared. In addition, 300 mg/mL sample solution was prepared. Thereafter, 0.2 mL of these sample solutions each was mixed with 19.8 mL of BHI (Brain Heart Infusion Agar, Becton Dickinson, MD) medium, thereby preparing agar plates having the sample concentration of 4.0 mg/mL, 3.0 mg/mL, 2.0 mg/mL, 1.0 mg/mL, 0.5 mg/mL, and 0.25 mg/mL in dishes. […] Sterilized water was used for dissolving catechin, because catechin was insoluble in DMSO.
(§4) As test bacteria, 13 kinds of bacteria, i.e., Streptococcus pneumoniae, Streptococcus pyogenes, Enterococcus faecalis, Staphylococcus aureus, Escherichia coli, Salmonella sp., Yersinia enterocolitica, Vibrio parahaemolyticus, Pseudomonas aeruginosa, Bacillus cereus, Bacillus subtilis MB-32, Bacillus subtilis ATCC6633, and Candida sp., were used. These bacteria each was mixed with 2 mL of sterilized MHB^R liquid medium (Mueller Hinton Broth^R, Becton Dickinson, MD) to prepare bacterial suspension having turbidity 1 (bacterial concentration 10^8/mL). Previously, small test tubes were set into each cell of a grating and sterilized, and 1 mL of 13 bacterial suspensions were added into the small test tubes set in the grating, respectively. By using a microplanter (SAKUMA, model: MIT-P), 10 μL aliquot was collected from each test tube set in the grating and transferred to other test tube, and the transferred bacterial suspensions were diluted 100-fold (bacterial concentration 10^6/mL).
(§5) By using the microplanter, 10 μL (bacterial number […]) of this bacterial suspension was inoculated onto the plates containing the sample solution of various concentrations. The plates were incubated for 18 hours in an incubator at 37° C., and then a microbicidal activity of each compound was assessed.

[3] = tested on: Streptococcus pyogenes; experiment: Agar dilution method microbicidal test; on Growth on agar plate: key: +: grew; −: did not grow
Protocol: as §1, §2, §3, §4, §5

[4] = tested on: Enterococcus faecalis; experiment: Agar dilution method microbicidal test; further: key: +: grew; −: did not grow
Protocol: as §1, §2, §3, §4, §5

[5] = tested on: Yersinia enterocolitica; experiment: Agar dilution method microbicidal test; on Growth on agar plate: key: +: grew; −: did not grow
Protocol: as §1, §2, §3, §4, §5

[6] = tested on: Candida sp.; experiment: Agar dilution method microbicidal test; on Growth on agar plate: key: +: grew; −: did not grow
Protocol: as §1, §2, §3, §4, §5

[7] = tested on: Vibrio parahaemolyticus; experiment: Agar dilution method microbicidal test; on Growth on agar plate: key: +: grew; −: did not grow
Protocol: as §1, §2, §3, §4, §5

Question: catechin [reference compound] was tested. Which “size of the inhibition ring” value [1] did it give?
Answer: 9.49

Question: What about the “Growth on agar plate” value ([2]; 0.25 mg/mL) of the same substance?
Answer: +

Question: And the “Growth on agar plate” value ([2]; 0.5 mg/mL)?
Answer: +

Question: What about the “Growth on agar plate” value ([2]; 1.0 mg/mL) of the same substance?
Answer: −

Question: What about the “Growth on agar plate” value ([2]; 2.0 mg/mL) of the same substance?
Answer: −

Question: What about the “Growth on agar plate” value ([2]; 3.0 mg/mL) of the same substance?
Answer: −

Question: What about the “Growth on agar plate” value ([2]; 4.0 mg/mL) of the same substance?
Answer: −

Question: And the MIC ([2]; BHI agar, 37° C., 18 hours)?
Answer: 1000 µg/mL

Question: What about the “Growth on agar plate” value ([3]; 0.25 mg/mL) of the same substance?
Answer: +

Question: And the “Growth on agar plate” value ([3]; 0.5 mg/mL)?
Answer: +

Question: And the “Growth on agar plate” value ([3]; 1.0 mg/mL)?
Answer: +

Question: What about the “Growth on agar plate” value ([3]; 2.0 mg/mL) of the same substance?
Answer: −

Question: What about the “Growth on agar plate” value ([3]; 3.0 mg/mL) of the same substance?
Answer: −

Question: And the “Growth on agar plate” value ([3]; 4.0 mg/mL)?
Answer: −

Question: And the MIC ([3]; BHI agar, 37° C., 18 hours)?
Answer: 2000 µg/mL

Question: What about the “Growth on agar plate” value ([4]; 0.25 mg/mL) of the same substance?
Answer: +

Question: And the “Growth on agar plate” value ([4]; 0.5 mg/mL)?
Answer: +

Question: And the “Growth on agar plate” value ([4]; 1.0 mg/mL)?
Answer: +

Question: And the “Growth on agar plate” value ([4]; 2.0 mg/mL)?
Answer: +

Question: And the “Growth on agar plate” value ([4]; 3.0 mg/mL)?
Answer: +

Question: And the “Growth on agar plate” value ([4]; 4.0 mg/mL)?
Answer: +

Question: What about the “Growth on agar plate” value ([5]; 0.25 mg/mL) of the same substance?
Answer: +

Question: What about the “Growth on agar plate” value ([5]; 0.5 mg/mL) of the same substance?
Answer: +

Question: What about the “Growth on agar plate” value ([5]; 1.0 mg/mL) of the same substance?
Answer: −

Question: What about the “Growth on agar plate” value ([5]; 2.0 mg/mL) of the same substance?
Answer: −

Question: And the “Growth on agar plate” value ([5]; 3.0 mg/mL)?
Answer: −

Question: What about the “Growth on agar plate” value ([5]; 4.0 mg/mL) of the same substance?
Answer: −

Question: And the MIC ([5]; BHI agar, 37° C., 18 hours)?
Answer: 1000 µg/mL

Question: And the “Growth on agar plate” value ([6]; 0.25 mg/mL)?
Answer: +

Question: And the “Growth on agar plate” value ([6]; 0.5 mg/mL)?
Answer: +

Question: What about the “Growth on agar plate” value ([6]; 1.0 mg/mL) of the same substance?
Answer: −

Question: What about the “Growth on agar plate” value ([6]; 2.0 mg/mL) of the same substance?
Answer: −

Question: And the “Growth on agar plate” value ([6]; 3.0 mg/mL)?
Answer: −

Question: And the “Growth on agar plate” value ([6]; 4.0 mg/mL)?
Answer: −

Question: And the MIC ([6]; BHI agar, 37° C., 18 hours)?
Answer: 1000 µg/mL

Question: And the “Growth on agar plate” value ([7]; 0.25 mg/mL)?
Answer: +

Question: What about the “Growth on agar plate” value ([7]; 0.5 mg/mL) of the same substance?
Answer: −

Question: And the “Growth on agar plate” value ([7]; 1.0 mg/mL)?
Answer: −

Question: What about the “Growth on agar plate” value ([7]; 2.0 mg/mL) of the same substance?
Answer: −

Question: And the “Growth on agar plate” value ([7]; 3.0 mg/mL)?
Answer: −

Question: And the “Growth on agar plate” value ([7]; 4.0 mg/mL)?
Answer: −

Question: What about the MIC ([7]; BHI agar, 37° C., 18 hours) of the same substance?
Answer: 500 µg/mL

Source: US20100190846A1, “MICROBICIDAL AGENT AND MICROBICIDAL COMPOSITION” (priority 2006, published 2010)
